According to patent EP3991729A1, “USE OF AMLEXANOX IN PREPARING ANTI-HEPATITIS VIRUS DRUG” (Marine Biomedical Research Institute Of Qingdao Co., Ltd., priority 2019, dated 2020):

Experiments:
hepatitis B virus [1] = assay: HBsAg in culture supernatant of HBV DNA-transfected HepG2 cells, ELISA; details: 10µM, HepG2, 96h after transfection, Figure 2
Procedure: Hepatocyte HepG2 cells with good growth status were seeded in 6-well plates at 10^6 cells/well and, after being left overnight, 2µg of linear HBV viral genomic DNA (genotype B) was transfected into each well using lipofectamine 2000 to establish a viral infection cell model. […] An equal volume of DMSO (1/1000, v/v) was added to the control group. Forty-eight hours after transfection, cells from each well were passaged into one 6cm culture plate. After transfection, HBsAg levels in the culture supernatant were quantified by ELISA 96h.
Well-grown hepatocyte HepG2 cells 10^6 cells/well were seeded in 6-well plates, and after overnight, 2µg of linear HBV viral genomic DNA (genotype B) was transfected per well using Lipofectamine 2000. […] An equal volume of DMSO (1/1000, v/v) was added to the control group. Forty-eight hours after transfection, cells from each well were passaged into one 6cm culture plate. HBV surface antigen (HBsAg) in the culture medium was detected by ELISA 96h after transfection.

HepG2 cells = assay: Cytotoxicity test, MTT assay; type: cell-based; details: Homo sapiens, HepG2, 72 h, read-out: Inhibition (%) Hep G2
Procedure: (§1) […]. Various cells in the logarithmic growth phase were seeded in 96-well plates at 6,000 cells/well and cultured for 24h. […]. The dosage of DMSO in the solvent control group was based on the maximum dose of 0.1% used in the test group, with four duplicate wells for each concentration. Cells were treated with the drug for 72h and then added with 20µL 5 mg/mL MTT, cultured at 37°C for 4h, after added 100 µ L triple solution (10% SDS, 5% isobutanol, 12 mM hydrochloric acid), 96-well cell culture plate was placed in an incubator containing 5% CO2 at 37 ± 1°C overnight. OD value at 570nm was measured on a microplate reader.
(§2) The inhibition rate of tumor cell growth was calculated according to the following formula: Inhibition rate(%) = [(OD570controlwell−OD570dosewell)/OD570controlwell] × 100. [formula]

Hela cells = assay: Cytotoxicity test, MTT assay; type: cell-based; details: Homo sapiens, 72 h, read-out: Inhibition (%) Hel a
Procedure: as §1, §2

Huh7 cells = assay: Cytotoxicity test, MTT assay; type: cell-based
Procedure: as §1, §2

293 cells = assay: Cytotoxicity test, MTT assay; type: cell-based; details: Homo sapiens, HEK293, 72 h, read-out: Inhibition (%) 293
Procedure: as §1, §2

[2] = tested on: HepG2, HCT-116, Hela, A549, MCF7, MKN45, THP-1, Huh7, and 293 cells; assay: Cytotoxicity test, MTT assay, summary over the nine kinds of cells; type: cell-based; details: 72h
Procedure: as §1, §2

hepatitis B virus [3] = assay: Mouse venous hypertension model (genotype B), HBsAg in peripheral blood by ELISA; type: in vivo, Wild-type mice (C57/B6)
Procedure: . On the 9th day after infection, about 100µl/mouse of blood was harvested from the tail to separate serum, and the concentration of HBsAg in peripheral blood was detected by ELISA. The OD value at 450nm was measured on a microplate reader.
. On the 9th day after infection, about 100µl of blood was harvested from each animal, serum was separated, and the concentration of HBsAg in peripheral blood was measured by ELISA.

hepatitis B virus [4] = assay: HBV core antigen (HBeAg) in culture supernatant of HepAD38 cells, ELISA; type: cell-based; details: 16µM to 2µM, HepAD38, 24h to 144h, Figure 14
Procedure: A solvent-only control group (DMF) was also set up. Three replicate wells were set up for all experiments. 500µL of culture supernatant was taken at 24h, 48h, 72h, 96h, and 144h after adding the test article for ELISA to detect HBV core antigen (HBeAg) concentration.

hepatitis B virus [5] = assay: HBsAg in culture supernatant of HepAD38 cells, ELISA; type: cell-based; details: 10µM and 5µM, HepAD38, 24h, 48h, 96h, 144h, Figure 13
Procedure: Two groups of controls were also set up, one with only solvents (DMF) and one with antibiotics (tetracycline). Three replicate wells were set up for all experiments. 500µL of culture supernatant was taken at 24h, 48h, 96h, and 144h after adding the test article for ELISA to detect HBsAg concentration (Figure 13).

[6] = tested on: subtype A hepatitis B virus; assay: Mouse venous hypertension model (genotype A), HBeAg in peripheral blood by ELISA; type: in vivo, Wild-type mice (C57/B6); details: twice a day, oral gavage, 9th day after infection, Figure 8
Procedure: On the 9th day after infection, about 100µl of blood was harvested from each animal, serum was separated, and the concentration of HBeAg in peripheral blood was measured by ELISA.

hepatitis B virus [7] = assay: Mouse venous hypertension model (genotype B), core antigen (HBeAg) in peripheral blood by ELISA; type: in vivo, Wild-type mice (C57/B6); details: 50 mg/kg/day oral gavage, 9th day after infection, Figure 4
Procedure: . On the 9th day after infection, about 100µl/mouse of blood was harvested from the tail to separate serum. The concentration of hepatitis B virus core antigen (HBeAg) in peripheral blood was measured by ELISA. The OD value at 450nm was measured on a microplate reader.

hepatitis B virus [8] = assay: Mouse venous hypertension model (genotype A), serum HBsAg by ELISA, dose groups (Example 12); details: dose higher than 50 mg/day (converted adult dose), once a day oral gavage, seven days of administration, Figure 15
Procedure: Six-week-old male C57 mice were rapidly injected with 10µg/mouse of viral genomic DNA (genotype A) by tail vein injection in a short period. Viral infection was established using a venous hypertension model and randomly divided into groups. […] At the same time, a blank control was set up, and oral administration in uninfected mice was equivalent to the model group.
On days 1, 3, and 7 of administration, an appropriate amount of blood was collected from the tail vein of mice in each group. On day 9, the remaining peripheral blood was collected after the mice were sacrificed. All blood samples were centrifuged to obtain serum, divided into two portions. One was used to detect the concentration of HBsAg by ELISA, and the other was used to detect the enzyme activity of alanine aminotransferase (ALT) by alanine aminotransferase kit (colorimetric method) (Nanjing Jiancheng Bioengineering Institute).

[9] = Homo sapiens, Huh-7, 72 h, read-out: Inhibition (%) Hu h7

CC(C)c1ccc2oc3nc(N)c(C(=O)O)cc3c(=O)c2c1 [amlexanox, Amlexanox]
HBsAg levels in the culture supernatant (hepatitis B virus [1]): reduces HBsAg levels in cell models, and its effect is superior to that of existing clinical drugs | inhibition at 3.125 µM (HepG2 cells): 0% | inhibition at 6.25 µM (HepG2 cells): 0% | inhibition at 12.5 µM (HepG2 cells): 0% | inhibition at 25 µM (HepG2 cells): 0% | inhibition at 50 µM (HepG2 cells): 0% | inhibition at 100 µM (HepG2 cells): 4.8% | inhibition at 3.125 µM (Hela cells): 3.08% | inhibition at 6.25 µM (Hela cells): 2.48% | inhibition at 12.5 µM (Hela cells): 1.7% | inhibition at 25 µM (Hela cells): 0.79% | inhibition at 50 µM (Hela cells): 1.89% | inhibition at 100 µM (Hela cells): 6.15% | inhibition at 3.125 µM (Huh7 cells; [9]): 0% | inhibition at 6.25 µM (Huh7 cells; [9]): 7.28% | inhibition at 12.5 µM (Huh7 cells; [9]): 15% | inhibition at 25 µM (Huh7 cells; [9]): 18.1% | inhibition at 50 µM (Huh7 cells; [9]): 26.2% | inhibition at 100 µM (Huh7 cells; [9]): 35.2% | cytotoxicity (Huh7 cells; Huh7, 100 µM, 72h): some cytotoxicity | inhibition at 3.125 µM (293 cells): 0% | inhibition at 6.25 µM (293 cells): 0% | inhibition at 12.5 µM (293 cells): 0% | inhibition at 25 µM (293 cells): 0% | inhibition at 50 µM (293 cells): 0% | inhibition at 100 µM (293 cells): 11.3% | cytotoxicity ([2]; nine kinds of cells, below the concentration of 50 µM): no obvious cytotoxicity | cytotoxicity ([2]; remaining five cells (other than MKN45, HCT-116, MCF7, Huh7), 100 µM): no significant cytotoxicity | concentration of HBsAg in peripheral blood (hepatitis B virus [3]; 50 mg/kg/day oral gavage, 9th day after infection, Figure 3): reduced HBsAg levels in a mouse model of venous hypertension, and its effect is better than that of lamivudine | dose of significant effect (inhibition of hepatitis B virus, HBsAg) (hepatitis B virus [3]; oral gavage, 9th day after infection, Figure 7): 10 to 50 mg/kg | concentration of HBsAg in peripheral blood, dose-response relationship (hepatitis B virus [3]; oral gavage, daily dose as in Figure 7, 9th day after infection): its ability to inhibit the hepatitis B virus in the venous hypertension mouse model is enhanced | HBV core antigen (HBeAg) concentration in culture supernatant (hepatitis B virus [4]): significantly reduce HBsAg level and core antigen level | HBsAg concentration in culture supernatant (hepatitis B virus [5]): significantly reduce HBsAg level | concentration of HBeAg in peripheral blood ([6]; 16 mg/kg/time): still effective | concentration of HBeAg in peripheral blood, dose-response relationship ([6]; 4, 8 and 16 mg/kg/time): its ability to inhibit hepatitis B virus is enhanced in a mouse model of venous hypertension | concentration of hepatitis B virus core antigen (HBeAg) in peripheral blood (hepatitis B virus [7]): reduced hepatitis B virus core antigen levels in a mouse model of venous hypertension, and its effect was comparable to that of lamivudine | concentration of HBsAg in serum (hepatitis B virus [8]): significantly reduced surface antigen (HBsAg) levels
